Measured values published in US5929110A, “Fatty acid analogs and prodrugs” (G. D. Searle & Co., priority 1998, dated 1999).
Like-named read-outs stand apart in the source and are kept apart here.

Assays:
[1] = system: HIV-1; test: inhibition of HIV-1; reduction of cytopathogenic effect in virus-infected Leu-3a-positive CEM cells (MTT assay); format: cell-based, strain HTVL-IIIB; details: Human immunodeficiency virus 1, CCRF-CEM, multiplicity of infection 0.1, MTT read on 7th to 9th day post-infection
Description: Inhibitory activity against HIV-1 was shown by tests involving plating of susceptible human host cells which are syncytium-sensitive with and without virus in microculture plates, adding various concentrations of the test compound, incubating the plates for 7 to 9 days (during which time infected, non-drug treated control cells are largely or totally destroyed by the virus), and then determining the remaining number of viable cells with a colorometric endpoint.
Various illustrative compounds synthesized above were tested for inhibition of HIV-1 in a test which measured reduction of cytopathogenic effect in virus-infected syncytium-sensitive Leu-3a-positive CEM cells grown in tissue culture as follows:
Tissue culture plates were incubated at 37° C. in a humidified, 5% CO2 atmosphere and observed microscopically for toxicity and/or cytopathogenic effect (CPE). At 1 hour prior to infection each test article was prepared from the frozen stock, and a 20 μl volume of each dilution (prepared as a 10× concentration) was added to the appropriate wells of both infected and uninfected cells.
Assays were done in 96-well tissue culture plates. CEM cells were treated with polybrene at a concentration of 2 μg/ml, and an 80 μl volume of cells (1×10^4 cells) was dispensed into each well. A 100 μl volume of each test article dilution (prepared as a 2× concentration) was added to 5 wells of cells, and the cells were incubated at 37° C. for 1 hour. A frozen culture of HIV-1, strain HTVL-IIIB, was diluted in culture medium to a concentration of 5×10^4 TCID50 per ml, and a 20 μl volume (containing 10^3 TCID50 of virus) was added to 3 of the wells for each test article concentration. […] A 20 μl volume of normal culture medium was added to the remaining wells to allow evaluation of cytotoxicity. Each plate contained 6 wells of untreated, uninfected, cell control samples and 6 wells of untreated, infected, virus control samples.
On the 7th to 9th day post-infection, the cells in each well were resuspended and a 100 μl sample of each cell suspension was removed for use in an MTT assay. A 20 μl volume of a 5 mg/ml solution of 3-(4,5-dimethylthiazol-2-yl)-2,5-diphenyltetrazolium bromide (MTT) was added to each 100 μl cell suspension, and the cells were incubated at 37° C. in 5% CO2 for 4 hours. […] A 100 μl volume of a solution of 10% sodium dodecyl sulfate in 0.01N hydrochloric acid was added to each sample, and the samples were incubated overnight. The absorbance at 590 nm was determined for each sample using a Molecular Devices Vmax microplate reader. This assay detects drug-induced suppression of viral CPE, as well as drug cytotoxicity, by measuring the generation of MTT-formazan by surviving cells.

[2] = biological half-life in rat hepatic S9 preparation; format: in vitro ADME; details: liver s9, rat hepatic S9, approximately 2 mcg/mL, 37° C.
Description: Various illustrative compounds synthesized in Examples above were tested for biological half-life. Compounds were incubated at a concentration of approximately 2 mcg/mL in a rat liver S9 preparation which was prepared according to standard procedures with minor modifications^1. The reactions were conducted at 37° C. in a water bath and stopped by the addition of ice cold methanol at various times ranging from 0 to 20 minutes. Aliquots of the incubations were analyzed by high performance liquid chromatography (HPLC) for the compound of interest. The analyses were conducted on a Waters HPLC system consisting of a model 510 pump and a Wisp model 712 automatic injector. Waters C18 columns were used to perform the separations. The compounds were detected by UV adsorption. The mobile phases consisted of acetonitrile and sodium phosphate buffer (40 mM, pH 3.5); specific conditions were varied slightly for each compound. Concentrations of each compound were determined with time and the rate of metabolism was determined by analyzing the data using the CSTRIP program^2.
^1 Subcellular Fractionation of Rat Liver. S. Fleischer and M. Kervina in Methods of Enzymology, Vol. XXXI, Biomembranes Part A, S. Fleischer and L. Packer Eds., pp. 6-41 (1974).
^2 A. T. Sedman and J. G. Warner, "CSTRIP. A Fortran IV Computer Program for Obtaining Initial Polyexponential Parameter Estimates.", J. Pharm. Sci. 65, 1006-1010 (1976).

[3] = 0 to 20 minutes, read-out: Half-life

COCCCCCCCCCCCC(=O)NCc1ccccc1 [Example 14, 12-Methoxy-N-(phenylmethyl)dodecanamide]
EC50 [1]: 3.8 µM | half-life [2, 3]: 2.41 min

CCOC(=O)c1cccc(NC(=O)CCCCCCCCCCCOC)c1 [Example 17, Ethyl 3-[(12-Methoxy-1-oxododecyl)amino]-benzoate]
EC50 [1]: 8.2 µM | half-life ([2]; read-out: Half-life (not detected at initial sampling)): < 5 min

COCCCCCCCCCCCC(=O)Nc1cccc(C(=O)O)c1 [Example 18, 3-[(12-Methoxy-1-oxododecyl)amino]benzoic acid]
EC50 [1]: > 285 µM | half-life [2, 3]: 8.46 min

CCOC(=O)[C@H](Cc1ccccc1)NC(=O)CCCCCCCCCCCOC [Example 49, N-(12-Methoxy-1-oxododecyl)-L-phenylalanine, Ethyl ester]
EC50 [1]: 5.4 µM | half-life [2, 3]: 1.07 min

CCCCCCCCCCOCCC(=O)N[C@H](Cc1ccccc1)C(=O)OCC [Example 56, N-(3-(Decyloxy)-1-oxopropyl]-D-phenylalanine, Ethyl ester]
EC50 [1]: > 240 µM | half-life [2, 3]: 1.97 min

CCOC(=O)[C@@H](CCCCNC(=O)OCc1ccccc1Cl)NC(=O)CCCCCCCCCCCOC [Example 68, N6-[[(2-Chlorophenyl)methoxy]carbonyl]-N2-(12-methoxy-1-oxododecyl)-D-lysine, Ethyl ester]
EC50 [1]: 13.1 µM | half-life [2, 3]: 8.54 min
